Laboratory results published in ChEMBL document CHEMBL5038650, “In Vitro and In Vivo Inhibition of the Mycobacterium tuberculosis Phosphopantetheinyl Transferase PptT by Amidinoureas” (J Med Chem, 2022).

Biological target: Voltage-gated inwardly rectifying potassium channel KCNH2 (Homo sapiens, UniProt Q12809)
Sequence (Q12809 whole entry): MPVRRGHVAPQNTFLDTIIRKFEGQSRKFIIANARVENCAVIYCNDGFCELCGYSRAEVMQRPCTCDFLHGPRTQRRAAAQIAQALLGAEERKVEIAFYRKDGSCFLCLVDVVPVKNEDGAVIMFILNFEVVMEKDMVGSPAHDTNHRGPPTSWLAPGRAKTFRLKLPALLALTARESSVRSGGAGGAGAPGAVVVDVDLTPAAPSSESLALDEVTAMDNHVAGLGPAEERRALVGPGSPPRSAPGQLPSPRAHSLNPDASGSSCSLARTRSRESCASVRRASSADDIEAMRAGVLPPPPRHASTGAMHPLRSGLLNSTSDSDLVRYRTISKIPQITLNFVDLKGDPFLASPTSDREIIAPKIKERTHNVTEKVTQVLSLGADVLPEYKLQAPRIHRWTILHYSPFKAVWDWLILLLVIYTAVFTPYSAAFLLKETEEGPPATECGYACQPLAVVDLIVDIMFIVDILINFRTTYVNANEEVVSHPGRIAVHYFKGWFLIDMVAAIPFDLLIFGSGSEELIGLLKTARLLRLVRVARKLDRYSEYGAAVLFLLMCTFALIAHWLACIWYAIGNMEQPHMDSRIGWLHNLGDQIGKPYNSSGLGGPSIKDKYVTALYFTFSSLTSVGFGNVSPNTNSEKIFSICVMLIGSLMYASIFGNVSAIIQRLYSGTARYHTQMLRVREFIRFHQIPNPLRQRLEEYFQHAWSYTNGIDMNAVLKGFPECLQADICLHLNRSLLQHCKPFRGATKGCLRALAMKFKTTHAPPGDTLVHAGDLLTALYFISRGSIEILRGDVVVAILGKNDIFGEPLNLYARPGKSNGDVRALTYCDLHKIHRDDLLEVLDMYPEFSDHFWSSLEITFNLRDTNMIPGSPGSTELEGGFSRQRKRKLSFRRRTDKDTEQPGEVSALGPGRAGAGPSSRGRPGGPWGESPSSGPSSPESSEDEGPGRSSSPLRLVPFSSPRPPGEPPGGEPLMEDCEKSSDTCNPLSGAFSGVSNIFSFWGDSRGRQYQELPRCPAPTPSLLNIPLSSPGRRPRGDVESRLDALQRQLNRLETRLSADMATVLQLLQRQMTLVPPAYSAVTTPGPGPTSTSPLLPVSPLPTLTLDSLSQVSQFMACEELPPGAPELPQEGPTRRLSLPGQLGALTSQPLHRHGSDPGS
Description: Inhibition of hERG expressed in HEK cells by patch clamp method

SMILES | IC50 [µM]
CCNC(=N)NC(=O)Nc1c(CC)cc(NS(=O)(=O)c2ccccc2)cc1CC | > 30
CCNC(=N)NC(=O)Nc1c(CC)cc(S(=O)(=O)NCC)cc1CC | > 30
CCNC(=N)NC(=O)Nc1c(CC)cc(C(=O)NCc2ccccc2)cc1CC | > 30
CCNC(=N)NC(=O)Nc1c(CC)cc(C(=O)NC(C)C)cc1CC | > 30
